Test results taken from US11370774B2, “Substituted benzofuran, benzopyrrole, benzothiophene, and structurally related complement inhibitors” (BioCryst Pharmaceuticals, Inc., priority 2018, dated 2022).

Target: Factor D (Homo sapiens (Human), UniProt P00746)
Experiment: Factor D esterolytic assay (Z-Lys-SBzl substrate, DTNB, 405 nm)
Type: biochemical
Conditions: Z-Lys-SBzl 1.29 mM, pH 7.5, 10% DMSO, tested a minimum of three times, read-out: Measured Ki (IC50) Value for Compounds: IC50
Procedure, shortened: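 Thioester hydrolysis (Z-Lys-SBzl, 1.29 mM) by human Factor D ([…]) detected through DTNB color at 405 nm over 600 sec, minus 690 nm background. Buffer: 100 mM HEPES pH 7.5, 500 mM NaCl, 10% DMSO; optional room-temperature preincubation before substrate. IC50 derived from percent rate inhibition; at least three runs.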

Sequence of Factor D (P00746 26-253): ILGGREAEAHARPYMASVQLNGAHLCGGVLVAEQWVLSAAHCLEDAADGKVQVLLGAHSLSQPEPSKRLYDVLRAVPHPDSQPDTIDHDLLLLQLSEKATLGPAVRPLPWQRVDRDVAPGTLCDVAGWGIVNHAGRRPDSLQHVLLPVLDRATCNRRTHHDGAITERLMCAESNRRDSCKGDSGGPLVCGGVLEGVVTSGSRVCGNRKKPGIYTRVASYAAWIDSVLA

IC50 [nM] | SMILES
< 1000 | CS(=O)(=O)n1ccc2c(-c3cccc(CN)c3F)cc(COc3ccccc3CC(=O)O)cc21 [Compound 198b, 2-(2-((4-(3-(aminomethyl)-2-fluorophenyl)-1-(methylsulfonyl)-1H-indol-6-yl)methoxy)phenyl)acetic acid]
< 1000 | NCc1cccc(-c2cc(COc3ccccc3CC(=O)O)cc3cc(C(F)(F)F)oc23)c1 [Compound 199f, 2-(2-((7-(3-(aminomethyl)phenyl)-2-(trifluoromethyl)benzofuran-5-yl)methoxy)phenyl)acetic acid]
< 1000 | CC(C)Cc1cc2cc(COc3ccccc3CC(=O)O)cc(-c3cccc(CN)c3F)c2o1 [Compound 200e, 2-(2-((7-(3-(aminomethyl)-2-fluorophenyl)-2-isobutylbenzofuran-5-yl)methoxy)phenyl)acetic acid]
< 1000 | CC(C)Cc1cc2cc(COc3ccccc3CC(=O)O)cc(-c3cccc(CN)c3)c2o1 [Compound 201b, 2-(2-((7-(3-(aminomethyl)phenyl)-2-isobutylbenzofuran-5-yl)methoxy)phenyl)acetic acid]
< 1000 | Cc1ccc(CC(=O)O)c(OCc2cc(-c3cccc(CN)c3)c3occc3c2)c1 [Compound 202c, 2-(2-((7-(3-(aminomethyl)phenyl)benzofuran-5-yl)methoxy)-4-methylphenyl)acetic acid]
< 1000 | NCc1cccc(-c2cc(COc3cc(C4CC4)ccc3CC(=O)O)cc3ccoc23)c1 [Compound 203c, 2-(2-((7-(3-(aminomethyl)phenyl)benzofuran-5-yl)methoxy)-4-cyclopropylphenyl)acetic acid]
> 10000 | Nc1ccc2c(-c3cc(COc4ccccc4CC(=O)O)cc4ccoc34)ncnn12 [Compound 204e, 2-(2-((7-(7-aminopyrrolo[2,1-f][1,2,4]triazin-4-yl)benzofuran-5-yl)methoxy)phenyl)acetic acid]
< 1000 | NCc1cccc(-c2cc(COc3ccc(F)cc3CC(=O)O)cc3ccoc23)c1 [Compound 205d, 2-(2-((7-(3-(aminomethyl)phenyl)benzofuran-5-yl)methoxy)-5-fluorophenyl)acetic acid]
< 1000 | NCc1ccc(-c2cc(COc3ccccc3CC(=O)O)cc3ccoc23)s1 [Compound 206c, 2-(2-((7-(5-(aminomethyl)thiophen-2-yl)benzofuran-5-yl)methoxy)phenyl)acetic acid]
< 1000 | NCc1ccc(-c2cc(COc3ccccc3CC(=O)O)cc3ccoc23)o1 [Compound 207c, 2-(2-((7-(5-(aminomethyl)furan-2-yl)benzofuran-5-yl)methoxy)phenyl)acetic acid]
< 1000 | NCc1cccc(-c2cc(COc3ccc(Br)cc3CC(=O)O)cc3ccoc23)c1 [Compound 208d, 2-(2-((7-(3-(aminomethyl)phenyl)benzofuran-5-yl)methoxy)-5-bromophenyl)acetic acid]
< 1000 | NCc1cccc(-c2cc(COc3ccc(N)cc3CC(=O)O)cc3ccoc23)c1 [Compound 209c, 2-(5-amino-2-((7-(3-(aminomethyl)phenyl)benzofuran-5-yl)methoxy)phenyl)acetic acid]
< 1000 | CN1CCC(N(C)Cc2cc3cc(COc4ccccc4CC(=O)O)cc(-c4cccc(CN)c4)c3o2)CC1 [Compound 210c, 2-(2-((7-(3-(aminomethyl)phenyl)-2-((methyl(1-methylpiperidin-4-yl)amino)methyl)benzofuran-5-yl)methoxy)phenyl)acetic acid]
< 1000 | CS(=O)(=O)n1ccc2c(-c3ccnc(CN)c3)cc(COc3ccccc3CC(=O)O)cc21 [Compound 211c, 2-(2-((4-(2-(aminomethyl)pyridin-4-yl)-1-(methylsulfonyl)-1H-indol-6-yl)methoxy)phenyl)acetic acid]
< 1000 | NCc1cc(-c2cc(COc3ccccc3CC(=O)O)cc3[nH]ccc23)ccn1 [Compound 211e, 2-(2-((4-(2-(aminomethyl)pyridin-4-yl)-1H-indol-6-yl)methoxy)phenyl)acetic acid]
< 1000 | NCc1cccc(-c2cc(COc3ccccc3CC(=O)O)cc3c2ccn3S(=O)(=O)C2CC2)c1 [Compound 212e, 2-(2-((4-(3-(aminomethyl)phenyl)-1-(cyclopropylsulfonyl)-1H-indol-6-yl)methoxy)phenyl)acetic acid]
< 1000 | NCc1cccc(-c2cc(COc3ccccc3CC(=O)O)cc3c2ccn3S(=O)(=O)C2CC2)c1F [Compound 213b, 2-(2-((4-(3-(aminomethyl)-2-fluorophenyl)-1-(cyclopropylsulfonyl)-1H-indol-6-yl)methoxy)phenyl)acetic acid]
< 1000 | NCc1cccc(-c2cc(COc3ccccc3CC(=O)O)cc3ccsc23)c1 [Compound 214f, 2-(2-((7-(3-(aminomethyl)phenyl)benzo[b]thiophen-5-yl)methoxy)phenyl)acetic acid]
< 1000 | NCc1cccc(-c2cc(COc3ccccc3CC(=O)O)cc3sc(Cl)cc23)c1 [Compound 215h, 2-(2-((4-(3-(aminomethyl)phenyl)-2-chlorobenzo[b]thiophen-6-yl)methoxy)phenyl)acetic acid]

IC50 [nM] | SMILES
> 10000 | NCc1cccc(-c2cc(NC(=O)c3ccccc3N)cc3ccoc23)c1 [Compound 216d, 2-amino-N-(7-(3-(aminomethyl)phenyl)benzofuran-5-yl)benzamide]
> 10000 | Cn1ccc2cc(COc3ccccc3CC(=O)O)cc(-c3cccc(CN)c3)c21 [Compound 218f, 2-(2-((7-(3-(aminomethyl)phenyl)-1-methyl-1H-indol-5-yl)methoxy)phenyl)acetic acid]
< 1000 | CC(C)Cc1cc2cc(COc3ccccc3CC(=O)O)cc(-c3ccnc(CN)c3)c2o1 [Compound 219c, 2-(2-((7-(2-(aminomethyl)pyridin-4-yl)-2-isobutylbenzofuran-5-yl)methoxy)phenyl)acetic acid]
< 1000 | CC(C)Cc1cc2cc(COc3ccccc3CC(=O)O)cc(-c3ccnc(CN)c3F)c2o1 [Compound 220g, 2-(2-((7-(2-(aminomethyl)-3-fluoropyridin-4-yl)-2-isobutylbenzofuran-5-yl)methoxy)phenyl)acetic acid]
< 1000 | NCc1cc(-c2cc(COc3ccccc3CC(=O)O)cc3sccc23)ccn1 [Compound 221c, 2-(2-((4-(2-(aminomethyl)pyridin-4-yl)benzo[b]thiophen-6-yl)methoxy)phenyl)acetic acid]
< 1000 | CC(=O)NC(C(=O)O)c1ccccc1OCc1cc(-c2cccc(CN)c2)c2occc2c1 (stereo not shown) [Compound 222f, 2-acetamido-2-(2-((7-(3-(aminomethyl)phenyl)benzofuran-5-yl)methoxy)phenyl)acetic acid]
< 1000 | NCc1cccc(-c2cc(COc3ccccc3C(NC(=O)C3CC3)C(=O)O)cc3ccoc23)c1 (stereo not shown) [Compound 223e, 2-(2-((7-(3-(aminomethyl)phenyl)benzofuran-5-yl)methoxy)phenyl)-2-(cyclopropanecarboxamido)acetic acid]
< 1000 | CC(=O)Nc1ccc(CC(=O)O)c(OCc2cc(-c3cccc(CN)c3)c3occc3c2)c1 [Compound 224c, 2-(4-acetamido-2-((7-(3-(aminomethyl)phenyl)benzofuran-5-yl)methoxy)phenyl)acetic acid]
< 1000 | NCc1cccc(-c2cc(COc3ccccc3CC(=O)O)cc3oc(Cl)cc23)c1 [Compound 225h, 2-(2-((4-(3-(aminomethyl)phenyl)-2-chlorobenzofuran-6-yl)methoxy)phenyl)acetic acid]
< 1000 | NCc1cc(-c2cc(COc3ccccc3CC(=O)O)cc3cc(C(F)(F)F)oc23)ccn1 [Compound 226c, 2-(2-((7-(2-(aminomethyl)pyridin-4-yl)-2-(trifluoromethyl)benzofuran-5-yl)methoxy)phenyl)acetic acid]
< 1000 | NCc1cccc(-c2cc(COc3ccccc3CC(=O)O)cc3cc(F)oc23)c1 [Compound 227e, 2-(2-((7-(3-(aminomethyl)phenyl)-2-fluorobenzofuran-5-yl)methoxy)phenyl)acetic acid]
< 1000 | CC(C)S(=O)(=O)n1ccc2c(-c3cccc(CN)c3)cc(COc3ccccc3CC(=O)O)cc21 [Compound 228e, 2-(2-((4-(3-(aminomethyl)phenyl)-1-(isopropylsulfonyl)-1H-indol-6-yl)methoxy)phenyl)acetic acid]
< 1000 | CC(C)S(=O)(=O)n1ccc2c(-c3cccc(CN)c3F)cc(COc3ccccc3CC(=O)O)cc21 [Compound 229b, 2-(2-((4-(3-(aminomethyl)-2-fluorophenyl)-1-(isopropylsulfonyl)-1H-indol-6-yl)methoxy)phenyl)acetic acid]
1000 to 10000 | NCc1cccc(-c2cc(COc3cccnc3CC(=O)O)cc3ccoc23)c1 [Compound 230e, 2-(3-((7-(3-(aminomethyl)phenyl)benzofuran-5-yl)methoxy)pyridin-2-yl)acetic acid]
< 1000 | NCc1cccc(-c2cc(COc3ncccc3CC(=O)O)cc3ccoc23)c1 [Compound 231c, 2-(2-((7-(3-(aminomethyl)phenyl)benzofuran-5-yl)methoxy)pyridin-3-yl)acetic acid]
< 1000 | NCc1cc(-c2cc(COc3ccccc3CC(=O)O)cc3c2ccn3S(=O)(=O)C2CC2)ccn1 [Compound 232c, 2-(2-((4-(2-(aminomethyl)pyridin-4-yl)-1-(cyclopropylsulfonyl)-1H-indol-6-yl)methoxy)phenyl)acetic acid]
< 1000 | CC(C)S(=O)(=O)n1ccc2c(-c3ccnc(CN)c3)cc(COc3ccccc3CC(=O)O)cc21 [Compound 233c, 2-(2-((4-(2-(aminomethyl)pyridin-4-yl)-1-(isopropylsulfonyl)-1H-indol-6-yl)methoxy)phenyl)acetic acid]
< 1000 | NCc1cccc(-c2cc(COc3ccccc3C(NC(=O)[C@@H]3C[C@H]3c3ccccc3)C(=O)O)cc3ccoc23)c1 (stereo partly drawn) [Compound 234f, 2-(2-((7-(3-(aminomethyl)phenyl)benzofuran-5-yl)methoxy)phenyl)-2-((1R,2R)-2-phenylcyclopropanecarboxamido)acetic acid]
